Experimental findings from ChEMBL document CHEMBL1145929, “Syntheses and binding studies of new [(aryl)(aryloxy)methyl]piperidine derivatives and related compounds as potential antidepressant drugs with high affinity for serotonin (5-HT) and norepinephrine (NE) transporters” (J Med Chem, 2003) are described below.

The target of test [1] is 5-hydroxytryptamine receptor 2A (Rattus norvegicus, UniProt P14842). Briefly: Binding affinity against 5-hydroxytryptamine 2A receptor by displacement of [3H]-ketanserin from rat prefrontal cerebral cortex mambranes. The class given is tissue-based, Frontal cortex.
5-hydroxytryptamine receptor 2A, sequence (P14842 whole entry): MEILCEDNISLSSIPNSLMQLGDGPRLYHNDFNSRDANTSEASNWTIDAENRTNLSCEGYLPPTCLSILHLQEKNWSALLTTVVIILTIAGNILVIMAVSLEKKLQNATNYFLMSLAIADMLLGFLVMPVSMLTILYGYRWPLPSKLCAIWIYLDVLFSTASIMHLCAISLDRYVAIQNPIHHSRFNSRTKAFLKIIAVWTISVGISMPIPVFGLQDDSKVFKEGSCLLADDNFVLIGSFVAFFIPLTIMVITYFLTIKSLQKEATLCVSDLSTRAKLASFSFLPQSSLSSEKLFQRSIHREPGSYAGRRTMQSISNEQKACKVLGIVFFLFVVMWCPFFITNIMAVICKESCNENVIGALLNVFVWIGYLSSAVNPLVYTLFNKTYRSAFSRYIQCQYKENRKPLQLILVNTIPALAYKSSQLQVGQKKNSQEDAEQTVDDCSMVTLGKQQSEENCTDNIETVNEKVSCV
In test [2] the target is T1, 5-hydroxytryptamine receptor 1A (Rattus norvegicus, UniProt P19327).
T1 sequence (P19327 whole entry): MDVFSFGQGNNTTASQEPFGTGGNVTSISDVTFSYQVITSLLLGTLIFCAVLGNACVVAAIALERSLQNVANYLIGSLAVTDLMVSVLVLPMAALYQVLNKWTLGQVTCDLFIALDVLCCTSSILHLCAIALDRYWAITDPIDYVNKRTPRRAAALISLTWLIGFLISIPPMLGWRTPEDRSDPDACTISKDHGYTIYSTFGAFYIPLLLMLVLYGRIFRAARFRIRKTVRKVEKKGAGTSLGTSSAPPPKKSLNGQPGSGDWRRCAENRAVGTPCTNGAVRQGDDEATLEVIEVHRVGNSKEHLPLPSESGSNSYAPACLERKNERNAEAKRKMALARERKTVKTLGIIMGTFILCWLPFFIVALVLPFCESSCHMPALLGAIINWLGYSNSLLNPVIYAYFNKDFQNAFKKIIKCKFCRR
Briefly: Binding affinity against 5-hydroxytryptamine 1A receptor (5-HT1A) by displacement of [3H]8-OH-DPAT from rat hippocampus membranes. It is filed as cell membranes, Membrane. On the technique in general: Displacement assays read how much labelled ligand stays bound in the presence of the test substance.

Test [3] concerns the target T2, Sodium-dependent serotonin transporter (Rattus norvegicus, UniProt P31652). Briefly: Binding affinity against serotonin transporter (SERT) by displacement of [3H]paroxetine in male wistar rats.
Test [4] addresses Sodium-dependent dopamine transporter (Rattus norvegicus, UniProt P23977). Briefly: Binding affinity against dopamine transporter (DAT) by displacement of [3H]WIN-35428 in male wistar rats.
The target in test [5] is T2, Sodium-dependent serotonin transporter. The test can be described thus: Binding affinity to the serotonin transporter (SERT) measured by displacement of [3H]paroxetine in male wistar rats.

SMILES strings stand for the structures. A value given as a limit tells only on which side of the number the result lay.

Sodium-dependent dopamine transporter, sequence (P23977 whole entry): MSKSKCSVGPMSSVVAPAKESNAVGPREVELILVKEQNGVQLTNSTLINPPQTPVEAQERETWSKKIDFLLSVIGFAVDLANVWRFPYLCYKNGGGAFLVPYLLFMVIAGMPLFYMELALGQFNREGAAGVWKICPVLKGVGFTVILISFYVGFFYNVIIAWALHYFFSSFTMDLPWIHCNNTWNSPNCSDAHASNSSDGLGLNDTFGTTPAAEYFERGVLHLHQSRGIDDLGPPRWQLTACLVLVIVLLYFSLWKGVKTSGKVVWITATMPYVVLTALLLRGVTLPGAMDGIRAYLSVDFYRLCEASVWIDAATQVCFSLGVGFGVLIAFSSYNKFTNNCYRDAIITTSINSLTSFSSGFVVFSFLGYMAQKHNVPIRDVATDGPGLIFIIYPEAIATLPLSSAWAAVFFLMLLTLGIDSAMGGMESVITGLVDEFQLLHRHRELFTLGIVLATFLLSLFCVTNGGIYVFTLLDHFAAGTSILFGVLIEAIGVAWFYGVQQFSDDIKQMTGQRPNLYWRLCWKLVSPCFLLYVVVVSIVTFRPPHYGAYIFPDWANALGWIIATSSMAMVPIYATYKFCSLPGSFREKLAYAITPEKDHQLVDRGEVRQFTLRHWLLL
T2 sequence (P31652 whole entry): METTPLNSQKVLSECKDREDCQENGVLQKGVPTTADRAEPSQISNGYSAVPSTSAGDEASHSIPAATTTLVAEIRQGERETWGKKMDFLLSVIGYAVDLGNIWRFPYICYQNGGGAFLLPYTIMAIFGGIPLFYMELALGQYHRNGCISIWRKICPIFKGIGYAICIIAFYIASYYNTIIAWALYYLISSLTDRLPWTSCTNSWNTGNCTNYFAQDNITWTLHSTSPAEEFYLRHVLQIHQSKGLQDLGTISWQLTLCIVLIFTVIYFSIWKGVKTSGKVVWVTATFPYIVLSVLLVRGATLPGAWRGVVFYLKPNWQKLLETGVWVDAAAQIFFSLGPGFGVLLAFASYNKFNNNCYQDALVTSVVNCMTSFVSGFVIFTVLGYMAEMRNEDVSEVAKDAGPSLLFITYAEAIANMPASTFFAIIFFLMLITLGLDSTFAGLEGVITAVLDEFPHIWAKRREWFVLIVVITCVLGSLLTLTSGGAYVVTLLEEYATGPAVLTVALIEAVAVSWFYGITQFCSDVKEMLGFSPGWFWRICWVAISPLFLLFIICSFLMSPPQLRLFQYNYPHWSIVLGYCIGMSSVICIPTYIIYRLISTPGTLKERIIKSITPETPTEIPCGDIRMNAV

Consider `Fc1cccc(OC(c2ccccc2)C2CCCC2)c1` (configuration not stated), for which the IC50 in test [1], in test [2] and in test [3] was over 1 µM throughout.

Turning to `COc1cc2c(cc1OC)CN(CCC(Oc1ccc(C)cc1)c1ccccc1)CC2` (configuration not stated), the IC50 (as a rule, the concentration that inhibits the measured activity by half) was over 1 µM in test [1], over 1 µM in test [2] and 0.325 µM in test [3].

On to `COc1ccc(OC(c2ccc(F)cc2)C2CCN(C(C)=O)CC2)cc1` (configuration not stated), for which the half-inhibitory concentration (IC50) in test [1], in test [2] and in test [3] was over 1 µM in each case.

As to `Cc1ccc(OC(CCN2CCc3ccccc3C2)c2ccccc2)cc1` (configuration not stated), the concentration for half-maximal inhibition (IC50) in test [1], in test [2] and in test [3] was over 1 µM each time.

On to `Oc1cc2c(cc1O)CN(CCC(Oc1ccc(Cl)cc1)c1ccccc1)CC2` (configuration not stated), for which the 50% inhibitory concentration (IC50) in test [1], in test [2] and in test [3] was over 1 µM each time.

Consider `Oc1cc2c(cc1O)CN(CCC(Oc1ccccc1F)c1ccccc1)CC2` (configuration not stated), for which the IC50 in test [1], in test [2] and in test [3] was over 1 µM throughout.

For `c1ccc(-c2ccc(OC(c3ccccc3)C3CCNCC3)cc2)cc1` (configuration not stated), the half-inhibitory concentration (IC50) in test [1], in test [2] and in test [3] was over 1 µM in each case.

For `Oc1cc2c(cc1O)CN(CCC(Oc1ccccc1C(F)(F)F)c1ccccc1)CC2` (configuration not stated), the IC50 in test [1], in test [2] and in test [3] was over 1 µM each time.

In the case of `Fc1cccc(OC(c2ccccc2)C2CCOCC2)c1` (configuration not stated), the half-inhibitory concentration (IC50) in test [1], in test [2] and in test [3] was over 1 µM throughout.

As for `Cc1ccc(OC(CCN2CCc3cc(O)c(O)cc3C2)c2ccccc2)cc1` (configuration not stated), the half-maximal inhibitory concentration (IC50) in test [1], in test [2] and in test [3] was over 1 µM throughout.

In the case of `COc1cc2c(cc1OC)CN(CCC(Oc1ccc(Cl)cc1)c1ccccc1)CC2` (configuration not stated), the IC50 in test [1], in test [2] and in test [3] was over 1 µM each time.

Regarding `Clc1ccc(OC(CCN2CCc3ccccc3C2)c2ccccc2)cc1` (configuration not stated), the concentration for half-maximal inhibition (IC50) in test [1], in test [2] and in test [3] was over 1 µM throughout.

Regarding `FC(F)(F)c1ccccc1OC(CCN1CCc2ccccc2C1)c1ccccc1` (configuration not stated), the IC50 in test [1], in test [2] and in test [3] was over 1 µM throughout.

As to `CC(=O)N1CCC(C(Oc2ccccc2)c2ccc(F)cc2)CC1` (configuration not stated), the IC50 in test [1], in test [2] and in test [3] was over 1 µM in each case.

In the case of `Fc1cccc(OC(c2cccc(F)c2)C2CCNCC2)c1` (single isomer, unassigned; (+)), the half-inhibitory concentration (IC50) in test [1] is over 1 µM; in test [4], over 0.5 µM; in test [2] it was over 1 µM. Moreover, in test [5], the Ki (commonly a measure of affinity in units of concentration, obtained from inhibition or displacement) was found to be 0.0028 µM.

As for `N#Cc1cccc(OC(c2ccccc2)C2CCNCC2)c1` (single isomer, unassigned; (+)), the half-inhibitory concentration (IC50) in test [1], in test [4] and in test [2] was over 1 µM each time. Moreover, in test [5], the inhibitory constant (Ki) came to 0.0014 µM.

For `N#Cc1cccc(OC(c2ccccc2)C2CCNCC2)c1` (single isomer, unassigned; (-)), the concentration for half-maximal inhibition (IC50) in test [1] and in test [2] was over 1 µM throughout. Moreover, the inhibitory constant (Ki) in test [4] amounted to 0.11 µM; in test [5], 0.0014 µM.

For `Fc1cc(F)cc(OC(c2ccccc2)C2CCNCC2)c1` (stereo in doubt; (+)-15aj), the IC50 is over 1 µM in test [1], over 0.5 µM in test [4] and over 1 µM in test [2]. This molecule came in with a Ki in test [5] of 0.0071 µM.

For `Clc1cccc(OC(c2ccccc2)C2CCNCC2)c1` (stereo in doubt; (+)-15l), the half-inhibitory concentration (IC50) in test [1], in test [4] and in test [2] was over 1 µM throughout.

Regarding `Fc1cc(F)cc(OC(c2ccccc2)C2CCNCC2)c1` (stereo in doubt; (-)-15aj), the IC50 in test [1], in test [4] and in test [2] was over 1 µM in each case.

With `Clc1cccc(OC(c2ccccc2)C2CCNCC2)c1` (stereo in doubt; (-)-15l), the half-inhibitory concentration (IC50) is over 1 µM in test [1], over 0.5 µM in test [4] and over 1 µM in test [2].
